Reference: US20070213359A1 (ACADIA Pharmaceuticals Inc., priority 2005, published 2007)
Like-named read-outs stand apart in the source and are kept apart here.

Tests used:
[1] = molecular target: T1, Ghrelin receptor (Homo sapiens, UniProt Q92847); experiment: Aeg; assay type: cell-based
Target sequence in this assay (Q92847 whole entry): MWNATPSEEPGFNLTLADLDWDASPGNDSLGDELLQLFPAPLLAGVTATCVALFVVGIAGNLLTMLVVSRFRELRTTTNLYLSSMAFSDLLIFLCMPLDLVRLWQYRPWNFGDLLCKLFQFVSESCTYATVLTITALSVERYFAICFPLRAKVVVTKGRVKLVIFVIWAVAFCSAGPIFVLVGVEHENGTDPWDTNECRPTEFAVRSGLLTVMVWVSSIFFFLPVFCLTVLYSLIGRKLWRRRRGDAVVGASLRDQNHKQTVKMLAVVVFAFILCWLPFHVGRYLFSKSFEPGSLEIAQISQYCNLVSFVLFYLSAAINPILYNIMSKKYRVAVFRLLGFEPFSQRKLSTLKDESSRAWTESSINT

[2] = molecular target: T1, Ghrelin receptor; experiment: Receptor Selection and Amplification Technology (R-SAT) assay; assay type: cell-based; set-up: expressed in transfected cells; host or cells: NIH3T3; settings: for IC50: '—' not defined (nd used separately), read-out: RSAT pIC50 (converted); for Emax: read-out: RSAT Eff(%)
Target sequence in this assay (Q92847 whole entry): as above

[3] = molecular target: T2, GHSR1a receptor (Homo sapiens, UniProt Q92847); experiment: 125I-Ghrelin binding assay; settings: displacement of 125I-ghrelin (0.053 nM), membranes of HEK293 cells transfected with GHSR1a, Cheng-Prussoff, '—' not defined
T2 construct: expressed in transfected cells; host or cells: HEK293 (membranes)

[4] = tested on: fasted, male Sprague-Dawley rats; experiment: Suppression of acute feeding response in fasted rats; assay type: in vivo, rat; settings: intraperitoneal, 30 mg/kg
[5] = molecular target: T1, Ghrelin receptor; experiment: pIC50; set-up: expressed in transfected cells; host or cells: NIH3T3
Description: Table printed on a drawing sheet, Figure 1
First copying reader's note: The table stands under a dose-response plot; chemical names broken over two lines at a hyphen are joined by a blank.
Target sequence in this assay (Q92847 whole entry, looked up): as the sequence (Q92847 whole entry) above

[6] = read-out: Binding pKi (converted)
[7] = negative logarithm of ligand concentration causing 50% inhibition of constitutive receptor response, transfected NIH3T3 cells
[8] = percent inhibition at saturating ligand, normalized to reference ligand Substance P analog = 100%

T2 sequence (Q92847 whole entry): as above

SMILES: COc1cccc2c(C(=O)c3ccccc3)cn(CCCN3CCC(c4nc5ccccc5s4)CC3)c12
- IC50 [1]: 0.0631 µM
- IC50 ([2]; […]): 0.0002 µM
- Emax [2]: 107%
- Ki ([3]; Binding pKi): 0.0398 µM

SMILES: COc1cccc2c(C(=O)Cc3ccccc3)cn(CCCN3C4CCC3CC(CCc3ccccc3)C4)c12 (stereo not drawn)
- IC50 ([2]; […]): 0.000251 µM
- Emax [2]: 141%
- Ki [3, 6]: 0.01 µM

SMILES: COc1cccc2c(C(=O)C3CC3)cn(CCCN3CCC(Oc4ccc(F)cc4)CC3)c12
- IC50 [1]: 0.0398 µM
- IC50 ([2]; […]): 0.000398 µM
- Emax [2]: 101%
- Ki ([3]; Binding pKi): 0.0501 µM

SMILES: COc1cccc2c(C#N)cn(CCCN3C4CCC3CC(CCc3ccccc3)C4)c12 (stereo not drawn)
- IC50 [2, 7]: 0.002 µM
- Emax [2]: 104%
- Ki [3, 6]: 0.0251 µM

SMILES: COc1cccc2c(C(C)=O)cn(CCCN3CCN(c4ncc(C(F)(F)F)cc4Cl)CC3)c12
- IC50 [2, 7]: 0.00251 µM
- RSAT Eff(%) [2, 8]: 103%
- Ki [3, 6]: 0.398 µM

SMILES: COc1cccc2c(C#N)cn(CCCN3CCCN(Cc4ccccc4Cl)CC3)c12
- IC50 [2, 7]: 0.00251 µM
- Emax [2, 8]: 137%
- Ki [3, 6]: 0.0126 µM

SMILES: CC(=O)c1cn(CCCN2CCC(C(=O)c3ccccc3)CC2)c2c(C)cccc12
- IC50 [2, 7]: 0.00316 µM
- Emax [2, 8]: 96%
- Ki [3, 6]: 0.1 µM

SMILES: CC(=O)c1cn(CCCN2CCCN(Cc3ccccc3Cl)CC2)c2ncccc12
- IC50 [2, 7]: 0.00316 µM
- Emax [2, 8]: 115%
- Ki [3, 6]: 0.0251 µM

SMILES: COc1cccc2c(C(=O)Cc3ccccc3)cn(CCCN3CCN(Oc4cccc(Cl)c4)CC3)c12
- IC50 ([2]; […]): 0.00316 µM
- Emax [2]: 88%
- Ki [3, 6]: 0.0158 µM

SMILES: COc1cccc2c(C(=O)Cc3ccccc3)cn(CCCN3C4CCC3CC(Oc3ccc(F)cc3)C4)c12 (stereo not drawn)
- IC50 ([2]; […]): 0.00398 µM
- Emax [2]: 99%
- Ki [3, 6]: 0.251 µM

SMILES: COc1cccc2c(C(=O)c3ccccc3)cn(CCCN3CCCN(Cc4ccc(F)cc4)CC3)c12
- IC50 ([2]; […]): 0.00398 µM
- Emax [2]: 96%
- Ki [3, 6]: 0.01 µM

SMILES: COc1cccc2c(C(=O)NCC(C)C)cn(CCCN3CCC(Oc4ccc(Cl)cc4)CC3)c12
- IC50 [2, 7]: 0.00398 µM
- Emax [2]: 146%
- Ki [3, 6]: 0.0501 µM

SMILES: CCCCCCC1CCN(CCCn2cc(C(C)=O)c3ccccc32)CC1
- IC50 [2, 7]: 0.2 µM
- Emax [2, 8]: 94%
- Ki [3, 6]: 6.31 µM

SMILES: CC(=O)c1cn(CCCN2CCC(CCC(C)C)CC2)c2ccccc12
- IC50 [2, 7]: 0.398 µM
- Emax [2, 8]: 73%
- Ki [3, 6]: 3.98 µM

SMILES: CC(=O)c1c(C)n(CCCN2C3CCC2CC(CC(=O)c2ccc(Cl)cc2)C3)c2c(Br)cccc12 (stereo not drawn)
- IC50 [2, 7]: 0.631 µM
- Emax [2, 8]: 64%
- Ki [3, 6]: 0.0631 µM

SMILES: CC(=O)c1cn(CCCN2C3CCC2CC(OCC2CC2)C3)c2ccccc12 (stereo not drawn)
- IC50 [2, 7]: 1.26 µM
- Emax [2, 8]: 89%
- Ki [3, 6]: 15.8 µM

SMILES: COc1cccc2c(C#N)cn(CCCN3CCC(Oc4cccc(Cl)c4)CC3)c12
- IC50 [2, 7]: 1.26 µM
- Emax [2, 8]: 162%
- Ki [3, 6]: 0.0398 µM

SMILES: COc1ccc2c(c1)C1CCN(CCCn3cc(C(C)=O)c4ccccc43)CC1C2 (stereo not drawn)
- IC50 [2, 7]: 1.26 µM
- Emax [2, 8]: 110%
- Ki [3, 6]: 5.01 µM

SMILES: COC(=O)c1cn(CCCN2CCC(Oc3ccc(F)cc3)CC2)c2ccccc12
- IC50 [2, 7]: 2 µM
- Emax [2, 8]: 87%
- Ki [3, 6]: 3.16 µM

SMILES: COc1cccc2c(C#N)cn(CCCN3C4CCC3CC(Oc3ccc(F)cc3)C4)c12 (stereo not drawn)
- IC50 [2, 7]: 15.8 µM
- Emax [2, 8]: 107%
- Ki [3, 6]: 0.2 µM

SMILES: COc1cccc2c(C#N)cn(CCCN3C4CCC3CC(CC(=O)c3ccc(Cl)cc3)C4)c12 (stereo not drawn)
- Emax [2, 8]: 12%
- Ki [3, 6]: 0.0794 µM

SMILES: CC(=O)c1c(C)n(CCCN2C3CCC2CC(Oc2ccccc2Cl)C3)c2c(Br)cccc12 (stereo not drawn)
- Emax [2, 8]: 37%
- Ki [3, 6]: 0.1 µM

SMILES: COc1cccc2c(C#N)cn(CCCN3CCCC(Cc4ccccc4Cl)C3)c12 (stereo not drawn)
- Emax [2, 8]: 62%
- Ki [3, 6]: 0.2 µM

SMILES: O=C(c1cn(CCCN2C3CCC2CC(Oc2ccccc2Cl)C3)c2ncccc12)C(F)(F)F (stereo not drawn)
- Emax [2, 8]: 23%
- Ki [3, 6]: 0.251 µM

SMILES: CC(=O)c1c(C)n(CCCN2CCCN(Cc3ccccc3Cl)CC2)c2c(Br)cccc12
- Emax [2, 8]: -14%
- Ki [3, 6]: 0.398 µM

SMILES: COc1cccc2c(C(C)=O)cn(CC(C)CN3C4CCC3CC(CC(=O)c3ccc(Cl)cc3)C4)c12 (stereo not drawn)
- Emax [2]: 16%
- Ki [3, 6]: 0.398 µM

SMILES: CCc1cccc2c(C(C)=O)cn(CCCN3CCC(CCOc4ccc(Cl)cc4)CC3)c12
- Emax [2, 8]: 76%
- Ki [3, 6]: 0.501 µM

SMILES: O=C(CC1CC2CCC(C1)N2CCCn1cc(C(=O)C(F)(F)F)c2cccnc21)c1ccc(Cl)cc1 (stereo not drawn)
- Emax [2, 8]: 10%
- Ki [3, 6]: 0.631 µM

SMILES: CCCCC1CCN(CCCn2cc(C(C)=O)c3ccccc32)CC1 [1-(1-(3-(4-butylpiperidin-1-yl)propyl)-1H-indol-3-yl)ethanone]
- suppression of feeding [4]: Robust suppression of feeding
- IC50 [5]: 0.158 µM

SMILES: COc1cccc2c(C(=O)NCC(C)C)cn(CCCN3CCC(c4nc5ccccc5s4)CC3)c12 [drawing 234]
- IC50 ([2]; […]): 0.00158 µM
- Emax [2]: 106%
- Ki ([3]; Binding pKi): 1 µM

SMILES: CC(=O)c1cn(CCCN2C3CCC2CC(CCc2ccccc2)C3)c2ccccc12 (stereo not drawn) [drawing 267]
- IC50 [2, 7]: 0.00501 µM
- Emax [2, 8]: 105%
- Ki [3, 6]: 0.316 µM

SMILES: COc1cccc2c(C(C)=O)cn(CCCN3CCC(Oc4ccc(Cl)cc4)CC3)c12 [drawing 276]
- IC50 ([2]; […]): 0.00501 µM
- Emax [2]: 144%
- Ki [3, 6]: 0.2 µM

SMILES: COc1cccc2c(C(C)=O)cn(CCCN3CCC(c4nc5ccccc5s4)CC3)c12 [drawing 280]
- IC50 [2, 7]: 0.00631 µM
- RSAT Eff(%) [2, 8]: 128%
- Ki [3, 6]: 0.398 µM

SMILES: COc1cccc2c(C(C)=O)cn(CCCN3CCC(Oc4ccc(Cl)cc4)CC3)c12 [drawing 300]
- IC50 [2, 7]: 0.00794 µM
- RSAT Eff(%) [2, 8]: 129%
- Ki [3, 6]: 0.126 µM

SMILES: COc1cccc2c(C(C)=O)cn(CCCN3CCC(c4nc5ccccc5s4)CC3)c12 [drawing 310]
- IC50 ([2]; […]): 0.01 µM
- Emax [2]: 102%
- Ki [3, 6]: 0.158 µM

SMILES: CCCOC1CCN(CCCn2cc(C(C)=O)c3cccc(OC)c32)CC1 [drawing 333]
- IC50 [2, 7]: 0.0158 µM
- Emax [2, 8]: 112%
- Ki [3, 6]: 2 µM

SMILES: CC(=O)c1cn(CCCN2C3CCC2CC(CCc2ccccc2)C3)c2ccccc12 (stereo not drawn) [drawing 433]
- IC50 [2, 7]: 0.0631 µM
- RSAT Eff(%) [2, 8]: 96%
- Ki [3, 6]: 1.58 µM

SMILES: CC(=O)c1cn(CCCN2CCC(Oc3ccc(F)cc3)CC2)c2ccccc12 [drawing 551]
- IC50 [2, 7]: 0.398 µM
- RSAT Eff(%) [2, 8]: 96%
- Ki [3, 6]: 2 µM

SMILES: COc1ccccc1C1CCN(CCCn2cc(C(C)=O)c3ccccc32)CC1 [drawing 576]
- IC50 [2, 7]: 0.501 µM
- RSAT Eff(%) [2, 8]: 106%
- Ki [3, 6]: 1.26 µM

SMILES: CCCCC1CCN(CCCn2cc(C(C)=O)c3ccccc32)CC1 [drawing 584]
- IC50 ([2]; […]): 0.631 µM
- Emax [2]: 77%
- Ki ([3]; Binding pKi): 3.98 µM

SMILES: CC(=O)c1cn(CCCN2CCC(Oc3ccccc3Cl)CC2)c2ccccc12 [drawing 599]
- RSAT Eff(%) [2, 8]: 116%
- Ki [3, 6]: 2.51 µM

SMILES: O=C(NCc1cccc(Cl)c1)c1cn(CCCN2CCC(Oc3ccc(F)cc3)CC2)c2ccccc12 [drawing 659]
- RSAT Eff(%) [2]: 67%
- Ki [3, 6]: 1.58 µM
